Source: patent publication US11261186B2, “Biaryl derivative as GPR120 agonist” (LG CHEM, LTD., priority 2014, dated 2022)

Biological target: T1, hGPR120 (Homo sapiens, UniProt Q5NUL3)
T1 construct: expressed in transfected cells; host or cells: CHO-K1
T1 sequence (Q5NUL3 1-361): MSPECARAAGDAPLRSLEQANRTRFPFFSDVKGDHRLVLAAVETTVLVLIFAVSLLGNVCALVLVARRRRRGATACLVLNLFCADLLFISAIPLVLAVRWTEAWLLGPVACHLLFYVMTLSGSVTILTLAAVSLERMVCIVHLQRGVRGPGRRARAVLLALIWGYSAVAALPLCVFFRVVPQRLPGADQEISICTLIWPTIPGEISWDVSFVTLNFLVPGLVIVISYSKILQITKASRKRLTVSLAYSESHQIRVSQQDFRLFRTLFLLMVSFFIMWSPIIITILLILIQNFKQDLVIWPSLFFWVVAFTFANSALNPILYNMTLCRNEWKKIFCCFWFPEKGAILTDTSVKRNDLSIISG
Test: Measurement of Activity of GPR120 Agonist (Cell-Based Assay), Calcium 5 dye fluorescence
Settings: CHO-K1 cells expressing Ga16 and hGPR120
Procedure, shortened: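 CHO-K1 cells co-expressing Gα16 and hGPR120, plated 18 h, loaded 1 h at 37°C with Calcium 5 dye. Serially diluted agonists added at 0.5% DMSO final; fluorescence read at Ex 485/Em 525 nm and expressed as relative % of DMSO-only signal.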

| EC50 [nM] | SMILES |
| --- | --- |
| < 200 | CN(CCCC(=O)O)c1c(F)cc(-c2cncc(OCC3CC3)n2)cc1F [Example 491, 4-[4-[6-(cyclopropylmethoxy)pyrazin-2-yl]-2,6-difluoro-N-methyl-anilino]butanoic acid] |
| < 200 | O=C(O)CCCOc1c(F)cc(-c2cccc(OCC3CC3)c2)cc1Cl [Example 406, 4-(5-chloro-3′-cyclopropylmethoxy-3-fluoro-biphenyl-4-yloxy)-butyric acid] |
| < 200 | Cc1ccc(OCC2CCC2)cc1-c1cc(F)c(OCCCC(=O)O)c(F)c1 [Example 530, 4-(5′-cyclobutylmethoxy-3,5-difluoro-2′-methyl-biphenyl-4-yloxy)-butyric acid] |
| < 200 | O=C(O)CCCOc1c(F)cc(-c2cccc(OCC3CC3)n2)cc1Cl [Example 401, 4-[2-chloro-4-(6-cyclopropylmethoxy-pyridin-2-yl)-6-fluoro-phenoxy]-butyric acid] |
| < 200 | Cc1ccc(Oc2ccnc(-c3cc(F)c(N4CCC(CC(=O)O)CC4)c(F)c3)n2)cc1 [Example 516, 2-[1-[4-[4-(p-tolyloxy)pyrimidin-2-yl]-2,6-difluoro-phenyl]-4-piperidyl]acetic acid] |
| < 200 | Cc1cc(OCC2CC2)nc(-c2cc(F)c(OCCCC(=O)O)c(F)c2)n1 [Example 432, 4-[4-(4-cyclopropylmethoxy-6-methyl-pyrimidin-2-yl)-2,6-difluoro-phenoxy]-butyric acid] |
| 200 to 2000 | O=C(O)C1CC1COc1c(F)cc(-c2cncc(OCC3CC3)n2)cc1F (stereo not shown) [Example 547, 2-[4-(6-cyclopropylmethoxy-pyrazin-2-yl)-2,6-difluoro-phenoxymethyl]-cyclopropanecarboxylic acid] |
| < 200 | CCCOc1ccnc(-c2cc(F)c(N3CCC(CC(=O)O)CC3)c(F)c2)n1 [Example 347, 2-[1-[2,6-difluoro-4-(4-propoxypyrimidin-2-yl)phenyl]-4-piperidyl]acetic acid] |
| < 200 | CC(C)Oc1cncc(-c2cc(F)c(N3CCC(CC(=O)O)CC3)c(F)c2)n1 [Example 339, 2-[1-[2,6-difluoro-4-(6-isopropoxypyrazin-2-yl)phenyl]-4-piperidyl]acetic acid] |
| < 200 | O=C(O)CC1CCN(c2c(F)cc(-c3cccc(OCC4CC4)n3)cc2F)C1 (stereo not shown) [Example 560, {1-[4-(6-cyclopropylmethoxy-pyridin-2-yl)-2,6-difluoro-phenyl]-pyrrolidin-3-yl}-acetic acid] |
| 200 to 2000 | COCCCOc1ccnc(-c2cc(F)c(N3CCC(CC(=O)O)CC3)c(F)c2)n1 [Example 600, (1-{2,6-difluoro-4-[4-(3-methoxy-propoxy)-pyrimidin-2-yl]-phenyl}-piperidin-4-yl)-acetic acid] |
| 200 to 2000 | O=C(O)CC1CCN(c2c(F)cc(-c3cccc(OC4CCSCC4)n3)cc2F)C1 (stereo not shown) [Example 596] |
| 200 to 2000 | O=C(O)CC1CCN(c2c(F)cc(-c3cccc4c3OC(F)(F)O4)cc2F)CC1 [Example 439, {1-[4-(2,2-difluoro-benzo[1,3]dioxol-4-yl)-2,6-difluoro-phenyl]-piperidin-4-yl}-acetic acid] |
| < 200 | CC1(C)Cc2c(cccc2-c2cc(F)c(OCCCC(=O)O)c(F)c2)O1 [Example 291, 4-[4-(2,2-dimethyl-2,3-dihydro-benzofuran-4-yl)-2,6-difluoro-phenoxy]-butyric acid] |

Second part, the compound before the results:

| SMILES | EC50 [nM] |
| --- | --- |
| CC(C)COc1ccnc(-c2cc(F)c(N3CCC(CC(=O)O)CC3)c(F)c2)n1 [Example 348, 2-[1-[2,6-difluoro-4-(4-isobutoxypyrimidin-2-yl)phenyl]-4-piperidyl]acetic acid] | < 200 |
| CN(Cc1cc(O)no1)c1ccc(-c2cccnc2OC2CCCC2)cc1 [Example 86, 5-[[4-[2-(cyclopentoxy)-3-pyridyl]-N-methyl-anilino]methyl]isoxazol-3-ol] | < 200 |
| O=C(O)CCCCc1ccc(-c2cccnc2SC2CCC2)cc1 [Example 27, 5-[4-(2-cyclobutylsulfanyl-3-pyridyl)phenyl]pentanoic acid] | < 200 |
| O=C(O)CC1CCN(c2c(F)cc(-c3nc(OC4CCC4)cs3)cc2F)CC1 [Example 379, {1-[4-(4-cyclobutoxy-thiazol-2-yl)-2,6-difluoro-phenyl]-piperidin-4-yl}acetic acid] | < 200 |
| O=C(O)CCCN1CCc2cc(-c3cccnc3SC3CCCC3)ccc21 [Example 132, 4-[5-(2-cyclopentylsulfanyl-3-pyridyl)indolin-1-yl]butanoic acid] | < 200 |
| CN(CCCC(=O)O)c1c(F)cc(-c2ccccc2N2CCCC2)cc1F [Example 221, 4-[(3,5-difluoro-2′-pyrrolidin-1-yl-biphenyl-4-yl)-methyl-amino]-butyric acid] | < 200 |
| O=C(O)CCCSc1ccc(-c2cccc3c2OC2(CCCC2)O3)cc1 [Example 156, 4-(4-spiro[1,3-benzodioxol-2,1′-cyclopentane]-4-ylphenyl)sulfanylbutanoic acid] | 200 to 2000 |
| O=C(O)CCCC(F)(F)c1ccc(-c2cccnc2SC2CCCC2)cc1 [Example 184, 5-[4-(2-cyclopentylsulfanyl-pyridin-3-yl)-phenyl]-5,5-difluoro-pentanoic acid] | < 200 |
| O=C(O)CCc1ccc2cc(-c3ccccc3Oc3ccccc3)ccc2c1 [Example 142, 3-[6-(2-phenoxy-phenyl)-naphthalen-2-yl]-propanoic acid] | 200 to 2000 |
| Cc1cc(OC2CCC2)nc(-c2cc(F)c(N3CCC(CC(=O)O)C3)c(F)c2)c1 (stereo not shown) [Example 577, {1-[4-(6-cyclobutoxy-4-methyl-pyridin-2-yl)-2,6-difluoro-phenyl]-pyrrolidin-3-yl}-acetic acid] | 200 to 2000 |
| CCCCOc1cncc(-c2cc(F)c(N3CCC(CC(=O)O)C3)c(F)c2)n1 (stereo not shown) [Example 498, 2-{1-[2,6-difluoro-4-(6-butoxy-pyrazin-2-yl)phenyl]pyrrolidin-3-yl}acetic acid] | < 200 |
| O=C(O)CCCCc1c(F)cc(-c2cccc(OC3CCCC3)n2)cc1F [Example 33, 5-[4-(6-cyclopentoxy-2-pyridyl)-2,6-difluoro-phenyl]pentanoic acid] | < 200 |
| O=C(O)C1CC1COc1c(F)cc(-c2cc(F)cc(OC3CCC3)c2)cc1F (stereo not shown) [Example 541, 2-(3′-cyclobutoxy-3,5,5′-trifluoro-biphenyl-4-yloxymethyl)-cyclopropanecarboxylic acid] | < 200 |
| O=C(O)CC1CCC(c2ccc(-c3cccnc3OC3CCCC3)cc2F)CC1 (stereo not shown) [Example 187, {4-[4-(2-cyclopentyloxy-pyridin-3-yl)-2-fluoro-phenyl]-cyclohexyl}-acetic acid] | 200 to 2000 |
| O=C(O)CCCCc1c(F)cc(-c2cccnc2OC2CCCC2)cc1F [Example 37, 5-[4-(2-cyclopentoxy-3-pyridyl)-2,6-difluoro-phenyl]pentanoic acid] | < 200 |
| Cc1cc(OC2CCC2)nc(-c2cc(F)c(N3CCC(CC(=O)O)C3)c(F)c2)n1 (stereo not shown) [Example 575, {1-[4-(4-cyclobutoxy-6-methyl-pyrimidin-2-yl)-2,6-difluoro-phenyl]-pyrrolidin-3-yl}-acetic acid] | 200 to 2000 |
| O=C(O)CCCOc1c(F)cc(-n2ncc3ccc(OC4CCC4)cc32)cc1Cl [Example 483, 4-[2-chloro-4-[6-(cyclobutoxy)indazol-1-yl]-6-fluoro-phenoxy]butanoic acid] | < 200 |
| CC(C)Sc1ncccc1-c1cc(F)c(-n2cc(CC(=O)O)cn2)c(F)c1 [Example 122, 2-[1-[2,6-difluoro-4-(2-isopropylsulfanyl-3-pyridyl)phenyl]pyrazol-4-yl]acetic acid] | 2000 to 20000 |
| CC(C)Oc1ncccc1-c1cc(F)c(OCc2cc(O)no2)c(F)c1 [Example 69, 5-[[2,6-difluoro-4-(2-isopropoxy-3-pyridyl)phenoxy]methyl]isoxazol-3-ol] | < 200 |
| Cc1cc(OC2CCC2)nc(-c2cc(F)c(OCCCC(=O)O)c(F)c2)n1 [Example 425, 4-[4-(4-cyclobutoxy-6-methyl-pyrimidin-2-yl)-2,6-difluoro-phenoxy]-butyric acid] | < 200 |
| O=C(O)CCCCc1c(F)cc(-c2cccnc2SC2CCC2)cc1F [Example 35, 5-[4-(2-cyclobutylsulfanyl-3-pyridyl)-2,6-difluoro-phenyl]pentanoic acid] | < 200 |
| CC1(C)Cc2c(ccc(F)c2-c2cc(F)c(OCCCC(=O)O)c(F)c2)N1 [Example 268, 4-[2,6-difluoro-4-(5-fluoro-2,2-dimethyl-2,3-dihydro-1H-indol-4-yl)-phenoxy]-butyric acid] | 200 to 2000 |
| O=C(O)CCC1CC1c1c(F)cc(-c2cccnc2OC2CCOCC2)cc1F (stereo not shown) [Example 190, 3-(2-{2,6-difluoro-4-[2-(tetrahydro-pyran-4-yloxy)-pyridin-3-yl]-phenyl}-cyclopropyl)-propanoic acid] | 200 to 2000 |
| CC(C)Oc1cccc(-c2cc(F)c(N3CC(CC(=O)O)C3)c(F)c2)n1 [Example 115, 2-[1-[2,6-difluoro-4-(6-isopropoxy-2-pyridyl)phenyl]azetidin-3-yl]acetic acid] | < 200 |
| Cc1cc(OC2CCC2)nc(-c2cc(F)c(OCC3CC3C(=O)O)c(F)c2)n1 (stereo not shown) [Example 542, 2-[4-(4-cyclobutoxy-6-methyl-pyrimidin-2-yl)-2,6-difluoro-phenoxymethyl]-cyclopropanecarboxylic acid] | < 200 |
| Cc1cc(OC2CCC2)nc(-c2cc(F)c(OCCCC(=O)O)c(Cl)c2)n1 [Example 391, 4-[2-chloro-4-[4-(cyclobutoxy)-6-methyl-pyrimidin-2-yl]-6-fluoro-phenoxy]butanoic acid] | < 200 |
